Patent US4307189A, “Method for the quantitative determination of terminal deoxynucleotidyl transferase in biological samples” (priority 1980, dated 1981)
Where two headings read alike, the source gives them in different places.

What was measured:
[1] = tested on: TdT; conditions: cited from earlier work
[2] = tested on: other cellular DNA polymerases; conditions: 100 mM ATP added (Mertelsmann); cited from earlier work
[3] = tested on: polynucleotide phophorylase; conditions: cited from earlier work
[4] = tested on: Terminal Deoxynucleotidyl Transferase (TdT); test: Incorporation of tritium labeled nucleotide into acid insoluble polydeoxynucleotides by purified TdT; type: biochemical; conditions: purified TdT enzyme sample, 90 minute incubation period, tritium labeled substrate
Procedure: (§1) To illustrate that suitable modified deoxynucleoside triphosphates and/or single stranded oligodeoxynucleotides which have impaired basing pairing abilities, as described above, are specific to TdT, tritium labeled ethenodeoxyadenosine triphosphate (etheno dATP) and tritium labeled deoxyadenosine triphosphate (dATP) were appropriately incubated with a purified TdT enzyme sample and with a purified E. coli DNA polymerase I sample.

[5] = molecular target: E. coli DNA polymerase I (Escherichia coli, UniProt P00582); test: Incorporation of tritium labeled nucleotide into acid insoluble polydeoxynucleotide by purified E. coli DNA polymerase I; type: biochemical; conditions: purified E. coli DNA polymerase I sample, 90 minute incubation period, tritium labeled substrate
Procedure: as §1

Sequence of E. coli DNA polymerase I (P00582 whole entry): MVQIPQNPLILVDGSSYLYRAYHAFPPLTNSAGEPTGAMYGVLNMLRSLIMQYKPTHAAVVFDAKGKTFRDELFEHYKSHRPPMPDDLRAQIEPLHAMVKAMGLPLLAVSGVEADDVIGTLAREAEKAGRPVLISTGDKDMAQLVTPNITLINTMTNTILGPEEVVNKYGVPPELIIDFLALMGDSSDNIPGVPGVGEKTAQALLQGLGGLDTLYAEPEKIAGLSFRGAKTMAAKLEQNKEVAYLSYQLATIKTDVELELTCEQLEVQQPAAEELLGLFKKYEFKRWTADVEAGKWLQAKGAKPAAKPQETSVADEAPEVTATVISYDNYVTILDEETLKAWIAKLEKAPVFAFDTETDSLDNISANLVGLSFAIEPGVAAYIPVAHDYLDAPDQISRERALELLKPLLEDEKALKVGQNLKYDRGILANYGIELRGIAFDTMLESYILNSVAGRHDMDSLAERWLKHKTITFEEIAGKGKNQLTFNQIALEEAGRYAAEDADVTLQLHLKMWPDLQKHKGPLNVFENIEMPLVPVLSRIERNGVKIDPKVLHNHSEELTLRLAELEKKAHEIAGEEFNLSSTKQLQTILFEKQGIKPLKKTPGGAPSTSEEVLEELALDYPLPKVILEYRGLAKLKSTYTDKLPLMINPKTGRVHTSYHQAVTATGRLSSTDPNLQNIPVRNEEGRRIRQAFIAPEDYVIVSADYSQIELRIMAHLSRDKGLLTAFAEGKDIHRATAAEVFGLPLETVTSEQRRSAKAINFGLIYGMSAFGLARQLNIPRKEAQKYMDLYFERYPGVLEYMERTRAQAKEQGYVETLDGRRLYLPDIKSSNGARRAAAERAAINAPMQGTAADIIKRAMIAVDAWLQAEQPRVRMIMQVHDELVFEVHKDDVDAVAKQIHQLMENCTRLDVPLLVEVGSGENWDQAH

Compound	incorporation into acid insoluble polydeoxynucleotides [4]	incorporation into acid insoluble polydeoxynucleotide [5]	other results
Nc1ncnc2c1ncn2[C@@H]1O[C@H](COP(=O)(O)OP(=O)(O)OP(=O)(O)O)[C@@H](O)[C@H]1O [ATP, adenosine triphosphate]	–	–	inhibition of TdT activity ([1]; 100 mM ATP added (Mertelsmann)): specifically inhibits TdT; effect on other cellular DNA polymerases [2]: without affecting other cellular DNA polymerases
6-dimethylaminoadenine	–	–	substrate for template independent RNA polymerase, polynucleotide phophorylase [3]: remains a substrate
O=P(O)(O)OP(=O)(O)OP(=O)(O)OC[C@H]1O[C@@H](n2cnc3c2ncn2ccnc32)C[C@@H]1O [etheno-dATP, 1,N^6 -ethenodeoxy-adenosine triphophate]	progressive incorporation	no detectable incorporation	–
CCN1C(=O)C=CC1=O [N-ethylmaleimide]	–	–	inhibition of TdT activity ([1]; 10% ethanol and 10 mM N-ethylmaleimide added (Coleman)): completely inhibit TdT activity
Nc1ncnc2c1ncn2[C@H]1C[C@H](O)[C@@H](COP(=O)(O)OP(=O)(O)OP(=O)(O)O)O1 [dATP, deoxyadenosine triphosphate]	progressive incorporation	normally and appreciably incorporated	–
